# The source made the active and inactive calls.
# Assays:
# [1] = target: G-protein coupled receptor 183 (Homo sapiens, UniProt P32249); test: SAR confirmation of small molecule antagonists of the EBI2 receptor via a luminescent beta-arrestin assa.; format: functional
# [2] = target: Neurotensin receptor type 1 (Homo sapiens, UniProt P30989); format: functional;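 note: Image-based confirmatory dose-response assay measuring agonist activity at NTR1; NTR1-expressing U2OS osteosarcoma cells imaged for beta-arrestin GFP spot formation; agonist potency where compounds increase beta-arrestin recruitment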
# [3] = system: Vero; test: cells; format: functional; details: Chlorocebus sabaeus
# [4] = target: T1, Protein RecA (Mycobacterium tuberculosis, UniProt P9WHJ3); test: Fluorescence Cell-Free Homogeneous Dose Retest to Identify Inhibitors of RecA-Intein Splicing Activity. [Related pubchem assays (depositor defined):AID2097, AID2223, AID489010, AID492950]; format: functional
# T1 sequence (P9WHJ3 whole entry): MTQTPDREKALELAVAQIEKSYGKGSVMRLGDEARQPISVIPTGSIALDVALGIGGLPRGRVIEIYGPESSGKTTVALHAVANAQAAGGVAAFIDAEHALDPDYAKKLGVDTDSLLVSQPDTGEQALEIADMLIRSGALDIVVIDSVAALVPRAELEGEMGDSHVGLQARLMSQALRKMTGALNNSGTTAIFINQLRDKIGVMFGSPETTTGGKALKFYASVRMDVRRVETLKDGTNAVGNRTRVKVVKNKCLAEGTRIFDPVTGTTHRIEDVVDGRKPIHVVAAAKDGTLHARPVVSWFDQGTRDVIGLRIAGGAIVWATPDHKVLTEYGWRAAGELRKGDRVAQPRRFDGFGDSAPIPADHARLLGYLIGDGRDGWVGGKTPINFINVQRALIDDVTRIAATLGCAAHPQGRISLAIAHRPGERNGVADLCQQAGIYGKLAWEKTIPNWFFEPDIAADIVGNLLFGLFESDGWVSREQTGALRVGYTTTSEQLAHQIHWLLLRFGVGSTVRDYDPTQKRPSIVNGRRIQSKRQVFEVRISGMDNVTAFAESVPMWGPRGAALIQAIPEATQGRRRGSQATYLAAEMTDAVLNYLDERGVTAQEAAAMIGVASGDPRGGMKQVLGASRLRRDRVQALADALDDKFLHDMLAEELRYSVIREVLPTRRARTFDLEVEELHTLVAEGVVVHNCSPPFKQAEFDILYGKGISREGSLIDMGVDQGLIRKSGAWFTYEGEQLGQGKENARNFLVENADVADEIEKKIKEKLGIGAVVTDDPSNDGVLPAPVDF
# [5] = IGROV1 cell killing – plate reader, dry powder samples, PAX8 inhibitor project, dose response (AID 743043); format: functional, cell-based; details: IGROV-1
# [6] = target: Paired box protein Pax-8 (Homo sapiens, UniProt Q06710); test: PAX8 transcriptional activity inhibition in RMG-I – RMG-I cells, luciferase, cherry-pick, dose response (AID 687027); format: functional, cell-based;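 note: luciferase reporter driven by Pax8 target thyroperoxidase promoter measured by SteadyGlo luminescence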
# [7] = non-specific 3'UTR reporter inhibition in Clone20-Shn3RL – cell-based, Renilla luciferase, cherry-picked, counter-screen for Shn3 inhibitor project, dose response (AID 624133); format: functional
# [8] = COV434 cell viability loss – plate reader, dry powder, SA7, cytotoxicity control for PAX8 inhibitor project, dose response (AID 743145); format: functional, cell-based
# [9] = loss of viability in HepG2 cells – cell-based, CellTiter-Glo, cherry-picked, cytotoxicity control for Shn3 inhibitor project, dose response (AID 624134); format: functional
# [10] = COV362 cell viability loss – plate reader, dry powder, SA12, cytotoxicity control for PAX8 inhibitor project, dose response (AID 743144); format: functional, cell-based
# [11] = target: T2, Hepatocyte nuclear factor 4-alpha (Homo sapiens, UniProt P41235); format: functional, cell-based;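 note: biochemical luminescence-based dose-response counterscreen measuring inhibition of HNF4 dimerization, run alongside a screen for blockers of ABHD5–perilipin-5 interaction; split luciferase complementation of HNF4 fusion proteins in cell lysate measuring dimerization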
# T2 sequence (P41235 whole entry): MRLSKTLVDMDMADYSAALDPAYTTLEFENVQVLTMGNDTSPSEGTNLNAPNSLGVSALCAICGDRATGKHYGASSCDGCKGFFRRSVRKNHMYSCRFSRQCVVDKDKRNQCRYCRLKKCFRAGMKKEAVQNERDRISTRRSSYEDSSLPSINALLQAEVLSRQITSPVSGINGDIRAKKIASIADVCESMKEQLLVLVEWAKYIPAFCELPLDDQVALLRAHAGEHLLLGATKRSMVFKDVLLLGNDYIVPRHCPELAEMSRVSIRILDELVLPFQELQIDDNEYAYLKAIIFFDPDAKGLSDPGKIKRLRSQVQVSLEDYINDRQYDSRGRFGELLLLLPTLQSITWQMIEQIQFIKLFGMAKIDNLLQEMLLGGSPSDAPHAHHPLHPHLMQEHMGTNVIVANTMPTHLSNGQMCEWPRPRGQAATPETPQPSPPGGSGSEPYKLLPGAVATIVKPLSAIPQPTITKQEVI
# [12] = OV-90 cell viability loss – plate reader, dry powder, SA8, PAX8 inhibitor project, dose response (AID 743149); format: functional, cell-based
# [13] = system: INS1; test: INS-1E survival protection against cytokine death – cell-based, luminescence, retest, dose response (AID 449756); format: functional; details: Rattus norvegicus;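 note: cell death triggered by IL-1 beta plus TNF-alpha plus IFN-gamma mixture; protective hits raise ATP signal compared with cytokine alone wells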
# [14] = A2780 cell killing – plate reader, dry powder samples, cytotoxicity control, dose response (AID 743046); format: functional, cell-based
# [15] = target: T3, Replicative DNA helicase DnaB (Mycobacterium tuberculosis, UniProt P9WMR3); test: DnaB intein splicing inhibitors, dose response, biochemical, cell-free fluorescence (AID 449749); format: functional
# T3 sequence (P9WMR3 whole entry): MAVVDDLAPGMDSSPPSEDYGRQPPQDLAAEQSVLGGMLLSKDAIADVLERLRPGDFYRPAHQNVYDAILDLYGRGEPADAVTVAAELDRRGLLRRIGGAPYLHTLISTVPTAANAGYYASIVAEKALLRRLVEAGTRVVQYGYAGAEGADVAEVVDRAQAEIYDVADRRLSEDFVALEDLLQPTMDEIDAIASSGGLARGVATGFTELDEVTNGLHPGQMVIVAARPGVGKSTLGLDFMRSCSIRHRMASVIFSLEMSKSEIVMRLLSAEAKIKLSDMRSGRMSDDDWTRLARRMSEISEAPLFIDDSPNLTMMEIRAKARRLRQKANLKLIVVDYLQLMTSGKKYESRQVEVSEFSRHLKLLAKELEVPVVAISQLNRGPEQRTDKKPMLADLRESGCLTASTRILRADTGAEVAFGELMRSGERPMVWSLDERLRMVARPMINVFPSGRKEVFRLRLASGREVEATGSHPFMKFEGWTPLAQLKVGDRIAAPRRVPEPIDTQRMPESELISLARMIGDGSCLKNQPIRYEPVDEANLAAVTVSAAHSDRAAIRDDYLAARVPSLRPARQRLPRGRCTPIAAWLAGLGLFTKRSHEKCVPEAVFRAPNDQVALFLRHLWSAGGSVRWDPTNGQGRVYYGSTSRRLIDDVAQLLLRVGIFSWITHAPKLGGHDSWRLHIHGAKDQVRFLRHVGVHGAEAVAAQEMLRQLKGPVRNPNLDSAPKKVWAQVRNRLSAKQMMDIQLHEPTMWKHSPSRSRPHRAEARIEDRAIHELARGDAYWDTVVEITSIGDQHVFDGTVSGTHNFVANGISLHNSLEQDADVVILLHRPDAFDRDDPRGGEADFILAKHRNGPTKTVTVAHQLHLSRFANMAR
# [16] = OVCAR4 cell viability loss – plate reader, dry powder, SA11, cytotoxicity control for PAX8 inhibitor project, dose response (AID 743150); format: functional, cell-based; details: OVCAR-4
# [17] = reduction of Shn3 3'UTR-driven luciferase in osteoblasts – cell-based, Clone20 osteoblasts, firefly luciferase, cherry-picked, dose response (AID 624132); format: functional;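 note: firefly luciferase luminescence from reporter carrying the Shn3 3'UTR in osteoblasts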
# [18] = PAX8-dependent cell viability loss – plate reader, dry powder, dose response (AID 743049); format: functional, cell-based
# [19] = inhibitors acting on PAX2 in cells – cell-based, plate reader, dry powder samples, selectivity assay for PAX8 inhibitor project, dose response (AID 743048); format: functional;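 note: HEK293 cells carrying a WT1 promoter luciferase reporter driven by expressed Pax2; potency is for inhibition of Pax2 driven reporter signal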
# [20] = toxicity toward immortalized ovarian surface epithelium – cell-based, plate reader, dry powder samples, cytotoxicity control for PAX8 inhibitor project, dose response (AID 743045); format: functional
# [21] = OVCAR-3 cell viability loss – plate reader, dry powder samples, PAX8 inhibitor project, dose response (AID 743044); format: functional, cell-based
# [22] = PAX5 cellular inhibition readout – cell-based, plate reader, dry powder samples, selectivity assay for PAX8 inhibitor project, dose response (AID 743047); format: functional;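 note: HEK293 cells carrying a Pax5 driven CD19 promoter luciferase reporter; potency of inhibitors that lower reporter luminescence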
# [23] = cells; format: functional, cell-based; details: INS-1E
# [24] = IC50 of insulin release inhibition, rat insulinoma INS-1E line, 5 mM glucose, cell-based (AID 1117331); format: functional
# [25] = viability loss in Vero cells – cytotoxicity control for Vif-APOBEC3G degradation inhibitor project, dose response (AID 1117358); format: functional; details: Vero
# [26] = target: T4, Cytochrome P450 1A2 (Homo sapiens, UniProt P05177);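 note: PubChem cytochrome P450 panel assay, CYP1A2 panel member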
# T4 sequence (P05177 whole entry): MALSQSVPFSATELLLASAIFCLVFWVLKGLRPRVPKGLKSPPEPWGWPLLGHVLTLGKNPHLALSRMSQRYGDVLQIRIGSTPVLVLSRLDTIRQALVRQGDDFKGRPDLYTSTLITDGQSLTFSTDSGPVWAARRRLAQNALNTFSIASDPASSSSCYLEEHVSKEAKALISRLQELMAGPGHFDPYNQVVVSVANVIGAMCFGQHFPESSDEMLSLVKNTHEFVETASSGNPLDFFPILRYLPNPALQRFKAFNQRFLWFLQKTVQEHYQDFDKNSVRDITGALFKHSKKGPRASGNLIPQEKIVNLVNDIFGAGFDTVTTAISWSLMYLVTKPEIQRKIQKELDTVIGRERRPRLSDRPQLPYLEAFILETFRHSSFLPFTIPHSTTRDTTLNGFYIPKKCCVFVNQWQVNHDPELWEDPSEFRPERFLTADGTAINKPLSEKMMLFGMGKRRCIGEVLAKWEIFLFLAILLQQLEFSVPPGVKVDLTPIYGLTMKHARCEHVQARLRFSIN
# [27] = blockers of HIV-1 envelope-mediated cell-cell fusion – cherry-pick, dose response (AID 652057); format: functional, cell-based
# [28] = target: Cytochrome P450 2C9 (Homo sapiens, UniProt P11712)
# [29] = blockers of HIV-1 ZM109 envelope-driven cell-cell fusion – HeLa effector, CEM target cells, luciferase, cherry-pick, dose response (AID 652058); format: functional, cell-based;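 note: luciferase signal from HIV-1 Env mediated cell-cell fusion of effector and target cells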
# [30] = viability loss in CEM21 cells – cell-based, CellTiter-Glo luminescence, cherry-picked, cytotoxicity control for viral fusion inhibitor project, dose response (AID 652042); format: functional;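 note: potency for signal decrease meaning cytotoxicity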
# [31] = HIV-1 AD8 envelope cell-cell fusion blockers – cherry-pick, dose response (AID 652062); format: functional, cell-based;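 note: luciferase signal from cell-cell fusion driven by HIV-1 clade B AD8 Env; potency is for inhibitors of fusion seen as a drop in luminescence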
# [32] = off-target signal loss in HeLa-CEM21 co-culture – HeLa F-luc CTL cells, cherry-picked, counter-screen for HIV-1 Env fusion inhibitor project, dose response (AID 652040); format: functional, cell-based;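 note: potency for signal decrease marking cytotoxic or nonspecific inhibition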
# [33] = target: Cytochrome P450 2D6 (Homo sapiens, UniProt P10635);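 note: CYP2D6 member of a cytochrome P450 panel assay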
# [34] = microbe, parasite or virus in culture; format: functional; details: Mycobacterium tuberculosis
# [35] = Potency on glucagon-like peptide 1 release, dose-response in NCI-H716 cell line, half maximal inhibitory concentration (AID 1117344); format: functional, cell-based
# [36] = glucagon-like peptide-1 release potency in STC-1, concentration-response, half-maximal inhibitory concentration in the STC-1 line (AID 1117345); format: functional, cell-based
# Chain of Cytochrome P450 2D6 (P10635 whole entry): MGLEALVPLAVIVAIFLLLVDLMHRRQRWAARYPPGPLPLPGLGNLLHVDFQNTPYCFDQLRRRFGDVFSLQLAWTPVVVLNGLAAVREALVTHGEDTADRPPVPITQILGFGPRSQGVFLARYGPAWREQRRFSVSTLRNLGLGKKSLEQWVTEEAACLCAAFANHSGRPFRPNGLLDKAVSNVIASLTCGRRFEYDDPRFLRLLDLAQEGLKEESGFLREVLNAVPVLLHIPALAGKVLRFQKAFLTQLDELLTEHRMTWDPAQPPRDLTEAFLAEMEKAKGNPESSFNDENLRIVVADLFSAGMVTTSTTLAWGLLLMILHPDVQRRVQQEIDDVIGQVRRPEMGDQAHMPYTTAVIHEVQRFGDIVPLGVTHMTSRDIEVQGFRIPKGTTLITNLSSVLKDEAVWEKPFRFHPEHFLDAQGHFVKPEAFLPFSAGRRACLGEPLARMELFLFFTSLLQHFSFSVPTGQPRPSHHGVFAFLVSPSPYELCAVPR
# Chain of Cytochrome P450 2C9 (P11712 whole entry, the tested form may be a part): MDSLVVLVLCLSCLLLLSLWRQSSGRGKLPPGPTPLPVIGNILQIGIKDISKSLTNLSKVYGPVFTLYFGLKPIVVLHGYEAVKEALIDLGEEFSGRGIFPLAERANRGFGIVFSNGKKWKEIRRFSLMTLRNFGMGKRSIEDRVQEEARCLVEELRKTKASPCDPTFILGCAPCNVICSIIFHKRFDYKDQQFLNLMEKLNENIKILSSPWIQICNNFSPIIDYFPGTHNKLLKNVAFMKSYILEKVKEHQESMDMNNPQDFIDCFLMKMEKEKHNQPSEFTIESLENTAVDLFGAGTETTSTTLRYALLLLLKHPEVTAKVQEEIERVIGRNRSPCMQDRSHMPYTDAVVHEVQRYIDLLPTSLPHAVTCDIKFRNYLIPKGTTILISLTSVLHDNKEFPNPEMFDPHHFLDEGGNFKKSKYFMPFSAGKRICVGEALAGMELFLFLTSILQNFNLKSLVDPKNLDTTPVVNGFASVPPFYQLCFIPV
# Chain of G-protein coupled receptor 183 (P32249 whole entry): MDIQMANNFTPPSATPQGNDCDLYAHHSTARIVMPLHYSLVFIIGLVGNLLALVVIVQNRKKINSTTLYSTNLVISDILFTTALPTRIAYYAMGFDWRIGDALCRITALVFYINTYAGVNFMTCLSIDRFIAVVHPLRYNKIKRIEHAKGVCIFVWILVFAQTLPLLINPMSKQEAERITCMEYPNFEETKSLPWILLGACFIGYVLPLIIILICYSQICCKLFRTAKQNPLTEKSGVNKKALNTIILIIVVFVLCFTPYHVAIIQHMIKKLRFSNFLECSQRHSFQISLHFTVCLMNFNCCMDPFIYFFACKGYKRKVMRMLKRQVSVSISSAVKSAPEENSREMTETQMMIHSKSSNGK
# Chain of Paired box protein Pax-8 (Q06710 whole entry): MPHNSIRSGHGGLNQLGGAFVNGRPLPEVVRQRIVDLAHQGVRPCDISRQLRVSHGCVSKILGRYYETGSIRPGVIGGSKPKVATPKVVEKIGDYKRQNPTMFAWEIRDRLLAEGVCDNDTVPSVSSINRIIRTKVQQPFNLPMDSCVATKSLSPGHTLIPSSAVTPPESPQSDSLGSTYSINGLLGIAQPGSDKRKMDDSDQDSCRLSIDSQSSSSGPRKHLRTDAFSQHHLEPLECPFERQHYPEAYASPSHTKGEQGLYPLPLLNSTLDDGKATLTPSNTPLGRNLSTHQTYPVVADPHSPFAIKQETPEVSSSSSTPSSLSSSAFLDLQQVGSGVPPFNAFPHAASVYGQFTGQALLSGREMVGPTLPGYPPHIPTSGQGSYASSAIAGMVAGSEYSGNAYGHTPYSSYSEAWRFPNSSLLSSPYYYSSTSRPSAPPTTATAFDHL
# Chain of Neurotensin receptor type 1 (P30989 whole entry): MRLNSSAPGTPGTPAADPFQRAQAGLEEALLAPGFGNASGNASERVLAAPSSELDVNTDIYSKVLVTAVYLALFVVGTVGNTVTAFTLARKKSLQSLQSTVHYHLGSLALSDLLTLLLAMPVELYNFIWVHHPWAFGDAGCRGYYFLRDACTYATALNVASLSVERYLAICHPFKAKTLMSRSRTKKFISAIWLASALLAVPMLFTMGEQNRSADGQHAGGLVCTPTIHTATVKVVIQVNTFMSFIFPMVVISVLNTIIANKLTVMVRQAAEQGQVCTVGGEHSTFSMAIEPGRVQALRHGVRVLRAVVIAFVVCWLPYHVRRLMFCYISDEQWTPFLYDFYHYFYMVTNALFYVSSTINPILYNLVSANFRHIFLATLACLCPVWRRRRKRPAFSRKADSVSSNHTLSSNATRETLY
smiles,measurement,setting,value
O=C(/C=C/c1ccccc1)N1CCN(Cc2ccc(F)cc2)CC1,IC50,[1],0.0216 µM (active)
O=C(Nc1ccc(Cl)cc1)/C(=C/c1cccc(O)c1)c1nc2ccccc2s1,EC50,[2],6.69 µM (active)
same,CC50,[3],2.37 µM (active)
same,EC50,[4],0.481 µM (active)
same,AC50,[5],30.7 µM (active)
same,AC50,[6],3.92 µM (active)
same,AC50,[7],9.54 µM (active)
same,AC50,[8],9.35 µM (active)
same,AC50,[9],9.66 µM (active)
same,AC50,[10],5.28 µM (active)
same,IC50,[11],4.66 µM (active)
same,AC50,[12],4.14 µM (active)
same,AC50,[13],3.7 µM (active)
same,AC50,[14],15.1 µM (active)
same,AC50,[15],> 380 µM (inconclusive)
same,AC50,[16],13.7 µM (active)
same,AC50,[17],3.53 µM (active)
same,AC50,[18],4.02 µM (active)
same,AC50,[19],12.8 µM (active)
same,AC50,[20],11.5 µM (active)
same,AC50,[21],8.14 µM (active)
same,AC50,[22],7.08 µM (active)
CN1CCCN(C(c2ccccc2)c2ccc(Cl)cc2)CC1 (centres undefined) [HOMOCHLORCYCLIZINE],IC50,[23],> 33.3 µM (inactive)
same,IC50,[24],> 3.7 µM (inactive)
Nc1nc(Cl)cc(N2CCC(c3cc(-c4ccc(Cl)cc4Cl)[nH]n3)CC2)n1,CC50,[25],> 40 µM (active)
same,AC50,[26],6.31 µM (inconclusive)
same,AC50,[27],18.5 µM (active)
same,AC50,[28],22.4 µM (inconclusive)
same,AC50,[7],5.61 µM (active)
same,AC50,[9],62 µM (active)
same,AC50,[29],0.394 µM (active)
same,AC50,[30],36.1 µM (active)
same,AC50,[17],4.94 µM (active)
same,AC50,[31],16.6 µM (active)
same,AC50,[32],> 70 µM (inactive)
same,AC50,[33],12.6 µM (inconclusive)
same,CC50,[34],> 40 µM (active)
CC(=O)NO [ACETOHYDROXAMIC ACID],IC50,[35],> 40 µM (inactive)
same,IC50,[36],> 40 µM (inactive)
